The values below come from PMC6015500 (ACS combinatorial science, 2015).

Each structure is given as a SMILES string. Read-outs that look alike come from different tables or passages of the source. Where only a bound is given, the exact number is not on record here.

The test system of series [1] is transient genotype 1a subgenomic replicon in Huh7.5.1 cells. As to the kind of experiment: Transient genotype 1a replicon assay. The following applies: tested at 10 µM; % of DMSO control. It is filed as cell-based, hepatitis C virus (HCV). (In antiviral work, replicon cells carry a viral genome segment that copies itself.)
Series [2] has as its system HCV pseudoparticle (HCVpp) GT 1b. As to the kind of experiment: HCVpp entry assay, genotype 1b. The class given is cell-based, hepatitis C virus (HCV). The note with it: tested at 10 µM; % of DMSO control.
Series [3] has as its system HCV-Luc (recombinant HCV carrying the Renilla luciferase reporter). Description: HCV-Luc infection assay. The class given is cell-based, hepatitis C virus (HCV).
A short description of series [4]: in vitro. The class given is cell-based. The note with it: human.
Series [5] can be described thus: Double-sink PAMPA permeability. The class given is in vitro ADME. For orientation: The PAMPA barrier holds no transporters, so it reflects passive diffusion.
Series [6] is described as follows: in vitro. The class given is cell-based. The note with it: human. This is another data set of the same source.
Series [7] relates to VSVpp. It is filed as cell-based.
In series [8] the test system is HCV pseudoparticle (HCVpp) GT 1a. Description: HCVpp entry assay, genotype 1a. The class given is cell-based, hepatitis C virus (HCV). The following applies: tested at 10 µM; % of DMSO control.
The test system of series [9] is single-round infectious HCV (HCVsc). As to the kind of experiment: HCV single-cycle assay. It is filed as cell-based, hepatitis C virus (HCV). The note with it: tested at 10 µM; % of DMSO control.
The nature of series [10]: In vitro microsomal stability. The following applies: CD-1, mouse, liver microsomes. It is filed as in vitro ADME. (In general: Liver microsomes are vesicles of endoplasmic reticulum, rich in cytochrome P450 enzymes.)
Series [11] deals with HCV replicon cell line of genotype 2a. As to the kind of experiment: HCV subgenomic replicon assay, genotype 2a. The following applies: tested at 10 µM; % of DMSO control. The class given is cell-based, hepatitis C virus (HCV).
For series [12], the system named is HCV replicon cell line of genotype 1b. Description: HCV subgenomic replicon assay, genotype 1b. It is filed as cell-based, hepatitis C virus (HCV). The following applies: tested at 10 µM; % of DMSO control.
For series [13], the system named is wild-type HCV (HCVcc, genotype 2a). Description: HCVcc wild-type infection assay. The note with it: Huh7.5.1 cells, compounds at 10 µM, 48 h, quantitative real-time PCR. It is filed as cell-based, hepatitis C virus (HCV).
Series [14] concerns Huh7.5.1 cells. As to the kind of experiment: in vitro. The class given is cell-based.

As a reminder, the EC50 is the concentration at which the effect is half-maximal. One may read the CC50 as the concentration at which the toxic effect on the cells reaches its halfway point. What is called Papp is the rate of passage across a membrane or cell layer, normalised by area and donor concentration. Low readings indicate slow passage, high ones fast passage. A word on the half-life: it is the time needed for the level to fall by half in the phase considered. A higher half-life goes with slow loss. Take `COc1ccc(-c2oc3ccc(-c4ccc5c(c4)OCO5)nc3c2C#CC2(O)CCCCC2)cc1` [10{21}, 1-((5-(Benzo[d][1,3]dioxol-5-yl)-2-(4-methoxyphenyl)furo-[3,2-b]pyridin-3-yl)ethynyl)cyclohexanol]: the “HCV Replicon DMSO (%) Transient la” value in series [1] is reported as 194%. Further, the “HCVpp DMSO (%) GT lb” value in series [2] turned out to be 78.1%. Further, the 50% effective concentration (EC50) in series [3] (Huh-7.5.1, 48 h, read-out: HCV-Luc EC50) was 0.184 µM; in [3] (Huh-7.5.1, read-out: HCV-Luc EC50), 0.18 µM. Moreover, the “Selective Index (SI)” value in [3] (SI = CC50/EC50, Huh7.5.1 cells) is >543. For the same compound, the CC50 in [4] is 92.3 µM. Besides, the Papp in series [5] (PAMPA) was < 154 nm/s. The “permeability” value in series [5] (double-sink PAMPA) was “moderate permeability”. In addition, the CC50 at 48 h in series [6] is > 100 µM. In addition, the “VSVpp DMSO (%)” value in [7] was 121%. Also, in [8], the “HCVpp DMSO (%) GT la” value came to 41.2%. The “HCVsc DMSO (%)” value in series [9] is reported as 20.0%. Further, in [10], the half-life was > 30 min. In addition, the “HCV Replicon DMSO (%) GT 2a” value in series [11] came out at 121%. Further, in [12], the “HCV Replicon DMSO (%) GT lb” value was found to be 82.1%. Further, the “extracellular and intracellular viral RNA levels” value in series [13] is “most promising activity”.
With `COc1ccc(-c2ccc3oc(-c4ccc(OC)cc4)c(C#CCCO)c3c2)cc1` [2{1}], the “inhibitory activity in the HCV-Luc assay” value in series [3] is reported as “low-micromolar”. Moreover, in series [3] (read-out: HCV-Luc EC50, Huh7.5.1 cells, 48 h, Renilla luciferase signal), the EC50 turned out to be 0.98 µM. The same compound came in with a 50% cytotoxic concentration (CC50) in series [14] of 70.9 µM.
